pKd: −log10 of the molar value.
Legend:
mouse TAAR1 = mouse TAAR1 (Mus musculus (Mouse), UniProt Q923Y8); experiment: Radioligand binding assay on mouse TAAR1; settings: for Ki: mouse TAAR1 (first value of the cell), membranes of HEK-293 cells stably expressing mouse TAAR1, read-out: Ki (μM) mouse/rat
rat TAAR1 = rat TAAR1 (Rattus norvegicus (Rat), UniProt Q923Y9); experiment: Radioligand binding assay on rat TAAR1; settings: for Ki: rat TAAR1 (second value of the cell), membranes of HEK-293 cells stably expressing rat TAAR1, read-out: Ki (μM) mouse/rat
Procedure, shortened: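 Membranes from HEK293 cells stably expressing rat TAAR1 were incubated 1 h at 4 °C, in duplicate, with the tritiated oxazol-2-ylamine radioligand added at 3.3×Kd (Kd set per membrane batch by saturation). Buffer was 20 mM HEPES-NaOH pH 7.4, 10 mM MgCl2, 2 mM CaCl2; filtration and scintillation counting followed. […]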

Sequence of mouse TAAR1 (Q923Y8 whole entry): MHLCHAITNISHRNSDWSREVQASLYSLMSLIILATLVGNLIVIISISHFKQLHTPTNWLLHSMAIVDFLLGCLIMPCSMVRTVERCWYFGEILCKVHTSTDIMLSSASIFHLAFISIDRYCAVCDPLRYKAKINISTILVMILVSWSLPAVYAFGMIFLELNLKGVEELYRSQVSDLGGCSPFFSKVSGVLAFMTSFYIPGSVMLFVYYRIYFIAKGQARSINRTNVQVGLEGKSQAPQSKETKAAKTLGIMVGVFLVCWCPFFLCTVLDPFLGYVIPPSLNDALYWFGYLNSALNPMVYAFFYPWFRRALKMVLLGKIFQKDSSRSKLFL
Sequence of rat TAAR1 (Q923Y9 whole entry): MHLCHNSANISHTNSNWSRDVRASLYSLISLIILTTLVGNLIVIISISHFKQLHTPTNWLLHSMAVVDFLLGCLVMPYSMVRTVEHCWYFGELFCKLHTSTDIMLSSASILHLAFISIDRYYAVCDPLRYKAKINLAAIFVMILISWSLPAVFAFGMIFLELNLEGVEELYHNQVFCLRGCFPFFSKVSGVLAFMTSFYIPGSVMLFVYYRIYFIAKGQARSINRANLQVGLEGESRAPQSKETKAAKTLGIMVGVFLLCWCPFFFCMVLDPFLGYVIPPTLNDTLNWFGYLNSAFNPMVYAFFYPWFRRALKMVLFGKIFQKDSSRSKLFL

Structure (SMILES)	Ki (mouse TAAR1) [µM]	Ki (rat TAAR1) [µM]	pKd (mouse TAAR1; mouse TAAR1 membranes, saturation curve, read-out: dissociation constant (Kd) of the TAAR1 radioligand)	pKd (rat TAAR1; rat TAAR1 membranes, saturation curve, read-out: dissociation constant (Kd) of the TAAR1 radioligand)
CC(C)c1cc(C(=O)Nc2ccc(C[C@@]34CN[C@@H](CO3)C4)cc2)[nH]n1 [Example 52, 3-Isopropyl-N-[4-[[(1R,4R)-5-oxa-2-azabicyclo[2.2.1]heptan-4-yl]methyl]phenyl]-1H-pyrazole-5-carboxamide]	0.295	1.16		
CCOc1ccc(C(=O)Nc2ccc(C34CCC(CO3)NC4)cc2)cc1 (stereo not shown) [Example 53, 4-Ethoxy-N-[4-(5-oxa-2-azabicyclo[2.2.2]octan-4-yl)phenyl]benzamide]	0.0156	1.98		
O=C(Nc1ccc([C@@]23CN[C@@H](CO2)C3)cc1)c1cccc(Cl)c1 [Example 55, 3-Chloro-N-[4-[(1R,4S)-5-oxa-2-azabicyclo[2.2.1]heptan-4-yl]phenyl]benzamide]	0.0036	0.964		
FC(F)(F)c1nccc(Nc2ccc([C@@]34CN[C@@H](CO3)C4)cc2)n1 [Example 56, N-[4-[(1R,4S)-5-Oxa-2-azabicyclo[2.2.1]heptan-4-yl]phenyl]-2-(trifluoromethyl)pyrimidin-4-amine]	0.0393	2.41		
O=C(Nc1ccc([C@]23CN[C@H](CO2)C3)cc1)c1ccc(Cl)cc1 [Example 58, 4-Chloro-N-[4-[(1S,4R)-5-oxa-2-azabicyclo[2.2.1]heptan-4-yl]phenyl]benzamide]	0.016	0.071		
O=C(Nc1ccc([C@]23CN[C@H](CO2)C3)cc1)c1ccnc(C(F)(F)F)c1 [Example 60, N-[4-[(1S,4R)-5-Oxa-2-azabicyclo[2.2.1]heptan-4-yl]phenyl]-2-(trifluoromethyl)pyridine-4-carboxamide]	0.0512	0.273		
FC(F)(F)c1ccc(Nc2ccc([C@]34CN[C@H](CO3)C4)cc2)nc1 [Example 61, N-[4-[(1 S,4R)-5-Oxa-2-azabicyclo[2.2.1]heptan-4-yl]phenyl]-5-(trifluoromethyl)pyridin-2-amine]	0.0146	0.0293		
FC(F)(F)c1nccc(Nc2ccc([C@]34CN[C@H](CO3)C4)cc2)n1 [Example 62, N-[4-[(1S,4R)-5-Oxa-2-azabicyclo[2.2.1]heptan-4-yl]phenyl]-2-(trifluoromethyl)pyrimidin-4-amine]	0.144	0.233		

Now from value to compound:

Ki (mouse TAAR1) [µM]	Ki (rat TAAR1) [µM]	pKd (mouse TAAR1; mouse TAAR1 membranes, saturation curve, read-out: dissociation constant (Kd) of the TAAR1 radioligand)	pKd (rat TAAR1; rat TAAR1 membranes, saturation curve, read-out: dissociation constant (Kd) of the TAAR1 radioligand)	Structure (SMILES)
0.0774	0.324			O=C(Nc1ccc(C[C@@]23CN[C@@H](CO2)C3)cc1)c1cnc(C2CC2)nc1 [Example 51, 2-Cyclopropyl-N-[4-[[(1R,4R)-5-oxa-2-azabicyclo[2.2.1]heptan-4-yl]methyl]phenyl]pyrimidine-5-carboxamide]
0.0054	0.97			O=C(Nc1ccc([C@@]23CN[C@@H](CO2)C3)cc1)c1ccc(Cl)cc1 [Example 54, 4-Chloro-N-[4-[(1R,4S)-5-oxa-2-azabicyclo[2.2.1]heptan-4-yl]phenyl]benzamide]
0.0593	1.91			O=C(Nc1ccc([C@@]23CN[C@@H](CO2)C3)cc1)c1ccnc(C(F)(F)F)c1 [Example 57]
0.0054	0.0774			O=C(Nc1ccc([C@]23CN[C@H](CO2)C3)cc1)c1cccc(Cl)c1 [Example 59, 3-Chloro-N-[4-[(1S,4R)-5-oxa-2-azabicyclo[2.2.1]heptan-4-yl]phenyl]benzamide]
0.0107	0.141			FC(F)(F)c1ccc(Nc2ccc(C[C@@]34CN[C@@H](CO3)C4)cc2)nc1 [Example 63, N-[4-[[(1R,4R)-5-Oxa-2-azabicyclo[2.2.1]heptan-4-yl]methyl]phenyl]-5-(trifluoromethyl)pyridin-2-amine]
		~9.15	~8.64	CCN(C[C@H]1COC(N)=N1)c1ccccc1 [^3[H]-(S)-4-[(ethyl-phenyl-amino)-methyl]-4,5-dihydro-oxazol-2-ylamine, reference compound]
